Measurements as given in patent US20150290201A1, “TREATMENT OF MUSCULAR DYSTROPHIES AND ASSOCIATED CONDITIONS BY ADMINISTRATION OF MONOAMINE OXIDASE INHIBITORS” (UNIVERSITA DEGLI STUDI DI PADOVA, priority 2011, published 2015).

Legend:
mdx mice [1] = assay: Tm oxidation (DCB formation) by immunoelectrophoresis, mdx mice; assay type: in vivo; conditions: gastrocnemius and quadriceps, i.p. pargyline for 1 week
Procedure: (§1) Col6a1^−/− mice were backcrossed in the inbred C57BL/6J strain for eight generations as described (Irwin, W. A., et al., (2003) Nat. Genet., 35, 367-371), and data were obtained by comparing Col6a1^−/− mice with their wild-type littermates. Wild-type C57BL/10 mice and mdx (in the C57BL/10 background) were obtained from Charles River and Jackson Laboratories, respectively. Pargyline (50 mg/kg/days) or vehicle (phosphate-buffered saline, PBS) were administered by daily intraperitoneal (i.p.) injection for 7 days in 6-month-old Col6a1^−/− and C57BL/6J male mice or 5-week-old mdx and C57BL/10 male mice. During the treatment, mice were placed in separate cages with a running wheel. At the end of the treatment, mice were sacrificed and muscles were removed and stored in liquid nitrogen until use.
Protein extracts were prepared as described (Canton, M., et al., (2006) Eur. Heart J., 27, 875-881). Immunoblotting were stained with the following antibodies: anti-Tm CH1 clone (Sigma), anti-MAO-B D-16 and anti-MAO-A H-70 clone (Santa Cruz). […] Quantitation of Tm oxidation was performed by densitometric analysis of the bands obtained under non-reducing conditions (ImageJ software). […] Data were expressed as percentage of DCB relative to vehicle-treated wild-type mice. […]

Col6a1^−/− mice [2] = assay: DHE staining for ROS detection in muscle cryosections of Col6a1−/− mice; assay type: in vivo; conditions: 6-month-old Col6a1−/− mice, pargyline 50 mg/kg/day i.p. 1 week
Procedure: as §1
DHE is oxidized by ROS, forming ethidium bromide, which emits red fluorescence when intercalates with DNA (Benov, L., et al., (1998) Free Radic. Biol. Med., 25, 826-831). […] For the detection of the fluorescence, 568±25 nm excitation and 585 nm long-pass emission filter settings were used. Data were acquired and analyzed using Metamorph software (Universal Imaging). […]

Col6a1^−/− mice [3] = assay: Muscle functional assessment (skinned fiber tension, gastrocnemius force, running wheel) in Col6a1−/− mice; assay type: in vivo
Procedure: as §1
Single myofibers were isolated from Col6a1^−/− gastrocnemius muscle, chemically skinned as described (Rossi, R., et al., (2001) Am. J. Physiol. Cell Physiol., 281, C585-0594) and tension was measured during maximal isometric activation (pCa=4.5, T=20° C., initial sarcomere length=2.75 μm). Force measurements were performed in the left and/or right gastrocnemius muscle of anesthetized mice by electrical stimulation through the sciatic nerve, as described previously (Blaauw, B., et al., (2008) Hum. Mol. Genet., 17, 3686-3696). Voluntary exercise was evaluated by placing a wheel in the cage. Before the treatment, mice were placed in separate cages with wheel to acclimatize, then the average distance covered by each mouse in 24 h during the treatment was measured using an automatic counter.
Biochemical and histological analyses were paralleled by functional assessment of the contractile performance of muscles in vivo and isolated muscle fibers in vitro. Single-skinned muscle fibers dissected from gastrocnemius muscle were maximally calcium-activated at optimal sarcomere length. […] After acclimatizing mice for 1 week to a wheel placed in their cage, the daily average distance was measured.

Col6a1^−/− mice [4] = assay: Tm oxidation (DCB formation) by immunoelectrophoresis, Col6a1−/− mice; assay type: in vivo; conditions: Col6a1−/− diaphragm, pargyline 50 mg/kg/day i.p. 1 week
mdx mice [5] = assay: Pathological markers (myofiber CSA, H&E inflammation, TUNEL) in mdx mice; assay type: in vivo; conditions: pargyline treatment
Procedure: as §1
Cross-sections (7 μm thick) were prepared and processed for hematoxylin and eosin (H&E) staining. For the morphometric analysis of myofiber cross sectional areas (CSAs), we counted approximately 2000 fibers per mouse for each muscle type by means of ImageJ software. At least three sections from each muscle were analyzed. TUNEL (terminal deoxynucleotidyl transferase-mediated dUTP nick end-labeling) was performed on paraffin-embedded sections (7 μm thick) using the ApopTag in situ apoptosis detection kit (Chemicon). Samples were stained with peroxidase diaminobenzidine to detect TUNEL-positive nuclei and counterstained with Hoechst 33258 to identify all nuclei, as described previously (Irwin, W. A., et al., (2003) Nat. Genet, 35, 367-371). The total number of nuclei and number of TUNEL-positive nuclei were determined in randomly selected fibers using a Zeiss Axioplan microscope equipped with a Leica DC 500 camera. Membrane permeability of skeletal muscle was directly visualized by immunohistochemical staining with IgG (Weller, B., et al., (1990) J. Neurol. Sci., 100, 9-13 and Blaauw, B., et al., (2008) Hum. Mol. Genet., 17, 3686-36%). […]

Col6a1^−/− mice [6] = assay: Pathological markers (TUNEL, IgG staining, Evans blue, myofiber CSA) in Col6a1−/− mice; assay type: in vivo; conditions: pargyline treatment
Procedure: as §1
Cross-sections (7 μm thick) were prepared and processed for hematoxylin and eosin (H&E) staining. For the morphometric analysis of myofiber cross sectional areas (CSAs), we counted approximately 2000 fibers per mouse for each muscle type by means of ImageJ software. At least three sections from each muscle were analyzed. TUNEL (terminal deoxynucleotidyl transferase-mediated dUTP nick end-labeling) was performed on paraffin-embedded sections (7 μm thick) using the ApopTag in situ apoptosis detection kit (Chemicon). Samples were stained with peroxidase diaminobenzidine to detect TUNEL-positive nuclei and counterstained with Hoechst 33258 to identify all nuclei, as described previously (Irwin, W. A., et al., (2003) Nat. Genet, 35, 367-371). The total number of nuclei and number of TUNEL-positive nuclei were determined in randomly selected fibers using a Zeiss Axioplan microscope equipped with a Leica DC 500 camera. Membrane permeability of skeletal muscle was directly visualized by immunohistochemical staining with IgG (Weller, B., et al., (1990) J. Neurol. Sci., 100, 9-13 and Blaauw, B., et al., (2008) Hum. Mol. Genet., 17, 3686-36%). Cryosections (10 μm thick) were incubated with anti-mouse fluorescein isothiocyanate-conjugated IgG, washed twice with PBS, mounted and visualized with an Olympus IMT-2 inverted microscope as previously described (Petronilli V., et al., (1999) Biophys. J., 76, 725-734) using excitation/emission cubes of 488/525±25 nm bandpass. Evans blue dye staining of muscles in vivo was performed by i.p. injection with 0.2 ml Evans blue (10 mg/ml in PBS; Sigma). Mice were sacrificed after 16-18 h and diaphragms were fixed with 4% paraformaldehyde overnight at 4° C. After fixation, the samples were observed by means of light microscopy.
Contractile impairment and high apoptosis rate are two specific features of skeletal muscles of Col6a1^−/− mice (Irwin, W. A., et al. (2003) Nat. Genet 35, 367-371). […] Occurrence of apoptosis was evaluated by TUNEL. […]

mdx mice [7] = assay: MAO-dependent ROS formation in muscles of mdx mice; assay type: in vivo; conditions: mdx-parg mice (n = 8)
Procedure: as §1
(§2) DHE is oxidized by ROS, forming ethidium bromide, which emits red fluorescence when intercalates with DNA (Benov, L., et al., (1998) Free Radic. Biol. Med., 25, 826-831). […] For the detection of the fluorescence, 568±25 nm excitation and 585 nm long-pass emission filter settings were used. Data were acquired and analyzed using Metamorph software (Universal Imaging).

Col6a1^−/− myoblasts = assay: Mitochondrial ROS production (Mitotracker Red) in myoblasts under oxidative stress; assay type: cell-based, mice; conditions: Col6a1−/− diaphragm myoblasts, 100 uM pargyline; inducers 100 uM H2O2, 5 uM arachidonic acid, 0.2 uM antimycin
Procedure: Myoblasts obtained from the diaphragm of Col6a1^−/− and Col6a1^+/+ mice were loaded with Mitotracker Red (MTR, 20 nM) to assess mitochondrial ROS production. After the first acquisition (with a fluorescence microscope), different inducers of oxidative stress (A: 100 uM H2O2, B: 5 uM arachidonic acid, C: 0.2 uM antimycin) were added and frames were collected at different intervals in the absence (filled square) and in the presence (filled triangles) of a MAO inhibitor (100 uM pargyline).
The extent of ROS accumulation in myoblasts obtained from diaphragm of Col6a1^−/− and Col6a1^+/+ mice was assessed. […] Remarkably, MAO inhibition reduced the presence of ROS in Col6a1^−/− myoblasts underlying the relevance of ROS production due to MAO activity.

Wild-type C57BL/10 mice = assay: ROS formation in muscles of wild-type C57BL/10 mice; assay type: in vivo; conditions: WT-parg mice (n = 8); WT-veh = 100.0
Procedure: as §1, §2

MAO = MAO activity assay (Amplex Red/HRP, tyramine) on muscle mitochondrial extracts after in vivo treatment; conditions: Col6a1−/− mice, gastrocnemius, pargyline 50 mg/kg/day i.p. for 1 week
Procedure: Muscle cryosections were suspended in PBS and centrifuged at 500 g for 10 min at 4° C. The supernatant was centrifuged at 8000×g for 10 min at 4° C. and the resulting pellet was resuspended in PBS and stored on ice until use. Protein concentration was determined by the Bradford assay (Bio-Rad). MAO activity assay was based on the detection of hydrogen peroxide generated during substrate catabolism in a horseradish peroxidase (HRP) coupled reaction using 10-acetyl-3,7-dihydroxyphenoxazine (Amplex Red reagent, Molecular Probes). The mitochondrial protein extracts (40 mg) were incubated in PBS with 10 mM Amplex Red and 15 mg/ml HRP. […] The fluorescence intensity was recorded at 37° C. using a Perkin Elmer LS-50B fluorimeter at the 544/590 nm excitation/emission wavelengths. Parallel samples were run in the absence of a substrate to take into account the increase in fluorescence not due to MAO activity. […]

In the case of `C#CCN(C)Cc1ccccc1` [Pargyline, N-Benzyl-N-methylprop-2-yn-1-amine], the “oxidative modifications (Tm oxidation, DCB)” value (mdx mice [1]) is reported as “significantly decreased”, the “abnormal production of ROS (DHE fluorescence) in muscles” value (Col6a1^−/− mice [2]) is reported as “significantly decreased” and the “normalized force of gastrocnemius muscle in vivo” value (Col6a1^−/− mice [3]; Col6a1−/− mice, pargyline treatment) is reported as “significantly increased”. For the same compound, the “voluntary exercise performance (running wheel, daily average distance)” value (Col6a1^−/− mice [3]; Col6a1−/− mice, pargyline-treated versus untreated) was “significant improvement”, the “contractile impairment (isometric tension of single-skinned fibers)” value (Col6a1^−/− mice [3]; gastrocnemius fibers of pargyline-treated Col6a1−/− mice, maximal calcium activation) was “disappeared” and the “DCB content (Tm oxidation)” value (Col6a1^−/− mice [4]) was “significantly reduced”. For the same compound, the “number of TUNEL-positive nuclei (apoptosis)” value (mdx mice [5]; diaphragm sections) was “significantly lower incidence”, the “myofiber CSA fiber area distribution” value (mdx mice [5]; gastrocnemius muscle) was “normalized the fiber area distribution” and the “tissue inflammation in skeletal muscles (H&E)” value (mdx mice [5]) was “reduce tissue inflammation”. The “damaged myofibers stained by Evans blue” value (Col6a1^−/− mice [6]; Col6a1−/− diaphragm) was “largely reduced”, the “number of damaged fibers positive to IgG immunohistochemical staining” value (Col6a1^−/− mice [6]; Col6a1−/− diaphragm) was “significantly decreased” and the “number of TUNEL-positive nuclei” value (Col6a1^−/− mice [6]; Col6a1−/− mice, diaphragm sections, vehicle 62.4±2.3, wild-type 2.7±1.2) was 6.9±1 nuclei/mm^2. For the same compound, the “myofiber cross-sectional area variability (different sizes, prevalence of small fibers)” value (Col6a1^−/− mice [6]; Col6a1−/− tibialis anterior and diaphragm) was “markedly reduced”, the “ROS formation, Quadriceps” value (mdx mice [7]; WT-veh = 100.0, mdx-veh 119.3 ± 1.3, in %) was 102.9 ± 1.5 and the “ROS formation, Gastrocnemius” value (mdx mice [7]; WT-veh = 100.0, mdx-veh 127.8 ± 9.0) was 105.6 ± 2.2. For the same compound, the “susceptibility to oxidative stress / mitochondrial ROS (Mitotracker Red)” value (Col6a1^−/− myoblasts) was “reduced”, the “ROS formation, Gastrocnemius” value (Wild-type C57BL/10 mice) was 102.8 ± 2.8 and the “ROS formation, Quadriceps” value (Wild-type C57BL/10 mice) was 96.9 ± 6.2. For the same compound, the “MAO activity in skeletal muscle after treatment” value (MAO) was “abolished”.
